Experimental data as given in PMC5775428, “Towards an experimental classification system for membrane active peptides” (Scientific Reports, 2018).
Read-outs that look alike come from different tables or passages of the source. No end group written: not given here.

Columns and labels:
Cryptococcus neoformans = tested on: Cryptococcus neoformans
Procedure, shortened: (§1)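 MICs determined per CLSI M7-A10 (bacteria) and M27-A3 (yeasts) protocols, peptides tested at 0.5 to 256 μM. MIC taken as the lowest concentration with no cells seen by optical microscopy; three biological repeats with 2 technical replicates each.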

[1] = tested on: Pseudomonas syringae pv. tabaci
Procedure, shortened: as §1

Bacillus cereus = tested on: Bacillus cereus
Procedure, shortened: as §1

Erwinia carotovora = tested on: Erwinia carotovora
Procedure, shortened: as §1

Escherichia coli = tested on: Escherichia coli
Procedure, shortened: as §1

Pseudomonas aeruginosa = tested on: Pseudomonas aeruginosa
Procedure, shortened: as §1

Xanthomonas campestris = details: for Minimum inhibitory concentration, Average: average of triplicates
Procedure, shortened: as §1

Candida albicans = tested on: Candida albicans
Procedure, shortened: as §1

Staphylococcus aureus = tested on: Staphylococcus aureus
Procedure, shortened: as §1

Bacillus subtilis = tested on: Bacillus subtilis
Procedure, shortened: as §1

[2] = Cryptococcus neoformans, CLSI M27-A3, triplicate 1
[3] = Cryptococcus neoformans, average of triplicates
[4] = Cryptococcus neoformans, triplicate 2
[5] = Cryptococcus neoformans, triplicate 3
[6] = Pseudomonas syringae pv. tabaci, CLSI M7-A10, triplicate 1
[7] = Pseudomonas syringae pv. tabaci, average of triplicates
[8] = Pseudomonas syringae pv. tabaci, triplicate 2
[9] = Pseudomonas syringae pv. tabaci, triplicate 3
[10] = Bacillus cereus, CLSI M7-A10, triplicate 1
[11] = Bacillus cereus, average of triplicates
[12] = Erwinia carotovora, CLSI M7-A10, triplicate 1
[13] = Erwinia carotovora, average of triplicates
[14] = Erwinia carotovora, triplicate 2
[15] = Erwinia carotovora, triplicate 3
[16] = Escherichia coli, CLSI M7-A10, triplicate 1
[17] = Escherichia coli, average of triplicates
[18] = Pseudomonas aeruginosa, CLSI M7-A10, triplicate 1
[19] = Pseudomonas aeruginosa, average of triplicates
[20] = Pseudomonas aeruginosa, triplicate 2
[21] = Pseudomonas aeruginosa, triplicate 3
[22] = Candida albicans, CLSI M27-A3, 0.5 to 256 μM tested, triplicate 1, also published in ref 7
[23] = Candida albicans, average of triplicates
[24] = Staphylococcus aureus, CLSI M7-A10, triplicate 1
[25] = Staphylococcus aureus, average of triplicates
[26] = Staphylococcus aureus, triplicate 2
[27] = Staphylococcus aureus, triplicate 3
[28] = Bacillus subtilis, CLSI M7-A10, triplicate 1
[29] = Bacillus subtilis, average of triplicates
[30] = Bacillus subtilis, triplicate 2
[31] = Bacillus subtilis, triplicate 3

LHRLVKLVAALLRGYASKVDTH [Tc08]
Minimum inhibitory concentration (Cryptococcus neoformans; [2]): 8 µM | Minimum inhibitory concentration, Average (Cryptococcus neoformans; [3]): 8.0 µM | Minimum inhibitory concentration (Cryptococcus neoformans; [4]): 8 µM | Minimum inhibitory concentration (Cryptococcus neoformans; [5]): 8 µM | Minimum inhibitory concentration [1, 6]: 4 µM | Minimum inhibitory concentration, Average [1, 7]: 4.0 µM | Minimum inhibitory concentration [1, 8]: 4 µM | Minimum inhibitory concentration [1, 9]: 4 µM | Minimum inhibitory concentration (Bacillus cereus; [10]): 4 µM | Minimum inhibitory concentration, Average (Bacillus cereus; [11]): 6.7 µM | Minimum inhibitory concentration (Bacillus cereus; Bacillus cereus, triplicate 2): 8 µM | Minimum inhibitory concentration (Bacillus cereus; Bacillus cereus, triplicate 3): 8 µM | Minimum inhibitory concentration (Erwinia carotovora; [12]): 2 µM | Minimum inhibitory concentration, Average (Erwinia carotovora; [13]): 3.3 µM | Minimum inhibitory concentration (Erwinia carotovora; [14]): 4 µM | Minimum inhibitory concentration (Erwinia carotovora; [15]): 4 µM | Minimum inhibitory concentration (Escherichia coli; [16]): 2 µM | Minimum inhibitory concentration, Average (Escherichia coli; [17]): 2.0 µM | Minimum inhibitory concentration (Escherichia coli; Escherichia coli, triplicate 2): 2 µM | Minimum inhibitory concentration (Escherichia coli; Escherichia coli, triplicate 3): 2 µM | Minimum inhibitory concentration (Pseudomonas aeruginosa; [18]): 4 µM | Minimum inhibitory concentration, Average (Pseudomonas aeruginosa; [19]): 4.0 µM | Minimum inhibitory concentration (Pseudomonas aeruginosa; [20]): 4 µM | Minimum inhibitory concentration (Pseudomonas aeruginosa; [21]): 4 µM | Minimum inhibitory concentration (Xanthomonas campestris; CLSI M7-A10, triplicate 1): 4 µM | Minimum inhibitory concentration, Average (Xanthomonas campestris): 4.0 µM | Minimum inhibitory concentration (Xanthomonas campestris; triplicate 2): 4 µM | Minimum inhibitory concentration (Xanthomonas campestris; triplicate 3): 4 µM | Minimum inhibitory concentration (Candida albicans; [22]): 4 µM | Minimum inhibitory concentration, Average (Candida albicans; [23]): 4.0 µM | Minimum inhibitory concentration (Candida albicans; Candida albicans, triplicate 2): 4 µM | Minimum inhibitory concentration (Candida albicans; Candida albicans, triplicate 3): 4 µM | Minimum inhibitory concentration (Staphylococcus aureus; [24]): 2 µM | Minimum inhibitory concentration, Average (Staphylococcus aureus; [25]): 2.0 µM | Minimum inhibitory concentration (Staphylococcus aureus; [26]): 2 µM | Minimum inhibitory concentration (Staphylococcus aureus; [27]): 2 µM | Minimum inhibitory concentration (Bacillus subtilis; [28]): 2 µM | Minimum inhibitory concentration, Average (Bacillus subtilis; [29]): 2.0 µM | Minimum inhibitory concentration (Bacillus subtilis; [30]): 2 µM | Minimum inhibitory concentration (Bacillus subtilis; [31]): 2 µM

GLWSTIKQKGKEAAIAAAKAAGQAALGAL-NH2 [DS01, Dermaseptin DS01, reference compound]
Minimum inhibitory concentration, Average (Cryptococcus neoformans): 8.0 µM | Minimum inhibitory concentration, Average [1]: 1.0 µM | Minimum inhibitory concentration, Average (Bacillus cereus): 16.0 µM | Minimum inhibitory concentration, Average (Erwinia carotovora): 0.5 µM | Minimum inhibitory concentration, Average (Escherichia coli): 1.0 µM | Minimum inhibitory concentration, Average (Pseudomonas aeruginosa): 2.0 µM | Minimum inhibitory concentration, Average (Xanthomonas campestris): 0.5 µM | Minimum inhibitory concentration, Average (Candida albicans): 4.0 µM | Minimum inhibitory concentration, Average (Staphylococcus aureus): 8.0 µM | Minimum inhibitory concentration, Average (Bacillus subtilis): 1.0 µM

GSLHGFMYRYLKNMVLNLF [Cs01]
Minimum inhibitory concentration (Cryptococcus neoformans; [2]): 8 µM | Minimum inhibitory concentration, Average (Cryptococcus neoformans; [3]): 8.0 µM | Minimum inhibitory concentration (Cryptococcus neoformans; [4]): 8 µM | Minimum inhibitory concentration (Cryptococcus neoformans; [5]): 8 µM | Minimum inhibitory concentration [1, 6]: 16 µM | Minimum inhibitory concentration, Average [1, 7]: 16.0 µM | Minimum inhibitory concentration [1, 8]: 16 µM | Minimum inhibitory concentration [1, 9]: 16 µM | Minimum inhibitory concentration (Bacillus cereus; [10]): 64 µM | Minimum inhibitory concentration, Average (Bacillus cereus; [11]): 64.0 µM | Minimum inhibitory concentration (Bacillus cereus; Bacillus cereus, triplicate 2): 64 µM | Minimum inhibitory concentration (Bacillus cereus; Bacillus cereus, triplicate 3): 64 µM | Minimum inhibitory concentration (Erwinia carotovora; [12]): 128 µM | Minimum inhibitory concentration, Average (Erwinia carotovora; [13]): 128.0 µM | Minimum inhibitory concentration (Erwinia carotovora; [14]): 128 µM | Minimum inhibitory concentration (Erwinia carotovora; [15]): 128 µM | Minimum inhibitory concentration (Escherichia coli; [16]): 32 µM | Minimum inhibitory concentration, Average (Escherichia coli; [17]): 32.0 µM | Minimum inhibitory concentration (Escherichia coli; Escherichia coli, triplicate 2): 32 µM | Minimum inhibitory concentration (Escherichia coli; Escherichia coli, triplicate 3): 32 µM | Minimum inhibitory concentration (Pseudomonas aeruginosa; [18]): 32 µM | Minimum inhibitory concentration, Average (Pseudomonas aeruginosa; [19]): 32.0 µM | Minimum inhibitory concentration (Pseudomonas aeruginosa; [20]): 32 µM | Minimum inhibitory concentration (Pseudomonas aeruginosa; [21]): 32 µM | Minimum inhibitory concentration (Xanthomonas campestris; CLSI M7-A10, triplicate 1): 64 µM | Minimum inhibitory concentration, Average (Xanthomonas campestris): 64.0 µM | Minimum inhibitory concentration (Xanthomonas campestris; triplicate 2): 64 µM | Minimum inhibitory concentration (Xanthomonas campestris; triplicate 3): 64 µM | Minimum inhibitory concentration (Candida albicans; [22]): 2 µM | Minimum inhibitory concentration, Average (Candida albicans; [23]): 2.7 µM | Minimum inhibitory concentration (Candida albicans; Candida albicans, triplicate 2): 2 µM | Minimum inhibitory concentration (Candida albicans; Candida albicans, triplicate 3): 4 µM | Minimum inhibitory concentration (Staphylococcus aureus; [24]): 4 µM | Minimum inhibitory concentration, Average (Staphylococcus aureus; [25]): 4.0 µM | Minimum inhibitory concentration (Staphylococcus aureus; [26]): 4 µM | Minimum inhibitory concentration (Staphylococcus aureus; [27]): 4 µM | Minimum inhibitory concentration (Bacillus subtilis; [28]): 8 µM | Minimum inhibitory concentration, Average (Bacillus subtilis; [29]): 8.0 µM | Minimum inhibitory concentration (Bacillus subtilis; [30]): 8 µM | Minimum inhibitory concentration (Bacillus subtilis; [31]): 8 µM

GFKLGRKLVKVFKWII [Gr01]
Minimum inhibitory concentration (Cryptococcus neoformans; [2]): 1 µM | Minimum inhibitory concentration, Average (Cryptococcus neoformans; [3]): 1.0 µM | Minimum inhibitory concentration (Cryptococcus neoformans; [4]): 1 µM | Minimum inhibitory concentration (Cryptococcus neoformans; [5]): 1 µM | Minimum inhibitory concentration [1, 6]: 1 µM | Minimum inhibitory concentration, Average [1, 7]: 1.0 µM | Minimum inhibitory concentration [1, 8]: 1 µM | Minimum inhibitory concentration [1, 9]: 1 µM | Minimum inhibitory concentration (Bacillus cereus; [10]): 1 µM | Minimum inhibitory concentration, Average (Bacillus cereus; [11]): 1.0 µM | Minimum inhibitory concentration (Bacillus cereus; Bacillus cereus, triplicate 2): 1 µM | Minimum inhibitory concentration (Bacillus cereus; Bacillus cereus, triplicate 3): 1 µM | Minimum inhibitory concentration (Erwinia carotovora; [12]): 0.5 µM | Minimum inhibitory concentration, Average (Erwinia carotovora; [13]): 0.5 µM | Minimum inhibitory concentration (Erwinia carotovora; [14]): 0.5 µM | Minimum inhibitory concentration (Erwinia carotovora; [15]): 0.5 µM | Minimum inhibitory concentration (Escherichia coli; [16]): 0.5 µM | Minimum inhibitory concentration, Average (Escherichia coli; [17]): 0.5 µM | Minimum inhibitory concentration (Escherichia coli; Escherichia coli, triplicate 2): 0.5 µM | Minimum inhibitory concentration (Escherichia coli; Escherichia coli, triplicate 3): 0.5 µM | Minimum inhibitory concentration (Pseudomonas aeruginosa; [18]): 2 µM | Minimum inhibitory concentration, Average (Pseudomonas aeruginosa; [19]): 3.3 µM | Minimum inhibitory concentration (Pseudomonas aeruginosa; [20]): 4 µM | Minimum inhibitory concentration (Pseudomonas aeruginosa; [21]): 4 µM | Minimum inhibitory concentration (Xanthomonas campestris; CLSI M7-A10, triplicate 1): 1 µM | Minimum inhibitory concentration, Average (Xanthomonas campestris): 1.0 µM | Minimum inhibitory concentration (Xanthomonas campestris; triplicate 2): 1 µM | Minimum inhibitory concentration (Xanthomonas campestris; triplicate 3): 1 µM | Minimum inhibitory concentration (Candida albicans; [22]): 1 µM | Minimum inhibitory concentration, Average (Candida albicans; [23]): 1.0 µM | Minimum inhibitory concentration (Candida albicans; Candida albicans, triplicate 2): 1 µM | Minimum inhibitory concentration (Candida albicans; Candida albicans, triplicate 3): 1 µM | Minimum inhibitory concentration (Staphylococcus aureus; [24]): 0.5 µM | Minimum inhibitory concentration, Average (Staphylococcus aureus; [25]): 0.8 µM | Minimum inhibitory concentration (Staphylococcus aureus; [26]): 1 µM | Minimum inhibitory concentration (Staphylococcus aureus; [27]): 1 µM | Minimum inhibitory concentration (Bacillus subtilis; [28]): 1 µM | Minimum inhibitory concentration, Average (Bacillus subtilis; [29]): 1.0 µM | Minimum inhibitory concentration (Bacillus subtilis; [30]): 1 µM | Minimum inhibitory concentration (Bacillus subtilis; [31]): 1 µM

ANRLLEAYKMLLKFLGNLR [Gr02]
Minimum inhibitory concentration (Cryptococcus neoformans; [2]): 2 µM | Minimum inhibitory concentration, Average (Cryptococcus neoformans; [3]): 2.7 µM | Minimum inhibitory concentration (Cryptococcus neoformans; [4]): 2 µM | Minimum inhibitory concentration (Cryptococcus neoformans; [5]): 4 µM | Minimum inhibitory concentration [1, 6]: 2 µM | Minimum inhibitory concentration, Average [1, 7]: 2.0 µM | Minimum inhibitory concentration [1, 8]: 2 µM | Minimum inhibitory concentration [1, 9]: 2 µM | Minimum inhibitory concentration (Bacillus cereus; [10]): 4 µM | Minimum inhibitory concentration, Average (Bacillus cereus; [11]): 4.0 µM | Minimum inhibitory concentration (Bacillus cereus; Bacillus cereus, triplicate 2): 4 µM | Minimum inhibitory concentration (Bacillus cereus; Bacillus cereus, triplicate 3): 4 µM | Minimum inhibitory concentration (Erwinia carotovora; [12]): 1 µM | Minimum inhibitory concentration, Average (Erwinia carotovora; [13]): 1.0 µM | Minimum inhibitory concentration (Erwinia carotovora; [14]): 1 µM | Minimum inhibitory concentration (Erwinia carotovora; [15]): 1 µM | Minimum inhibitory concentration (Escherichia coli; [16]): 4 µM | Minimum inhibitory concentration, Average (Escherichia coli; [17]): 4.0 µM | Minimum inhibitory concentration (Escherichia coli; Escherichia coli, triplicate 2): 4 µM | Minimum inhibitory concentration (Escherichia coli; Escherichia coli, triplicate 3): 4 µM | Minimum inhibitory concentration (Pseudomonas aeruginosa; [18]): 32 µM | Minimum inhibitory concentration, Average (Pseudomonas aeruginosa; [19]): 32.0 µM | Minimum inhibitory concentration (Pseudomonas aeruginosa; [20]): 32 µM | Minimum inhibitory concentration (Pseudomonas aeruginosa; [21]): 32 µM | Minimum inhibitory concentration (Xanthomonas campestris; CLSI M7-A10, triplicate 1): 4 µM | Minimum inhibitory concentration, Average (Xanthomonas campestris): 4.0 µM | Minimum inhibitory concentration (Xanthomonas campestris; triplicate 2): 4 µM | Minimum inhibitory concentration (Xanthomonas campestris; triplicate 3): 4 µM | Minimum inhibitory concentration (Candida albicans; [22]): 4 µM | Minimum inhibitory concentration, Average (Candida albicans; [23]): 4.0 µM | Minimum inhibitory concentration (Candida albicans; Candida albicans, triplicate 2): 4 µM | Minimum inhibitory concentration (Candida albicans; Candida albicans, triplicate 3): 4 µM | Minimum inhibitory concentration (Staphylococcus aureus; [24]): 1 µM | Minimum inhibitory concentration, Average (Staphylococcus aureus; [25]): 1.0 µM | Minimum inhibitory concentration (Staphylococcus aureus; [26]): 1 µM | Minimum inhibitory concentration (Staphylococcus aureus; [27]): 1 µM | Minimum inhibitory concentration (Bacillus subtilis; [28]): 1 µM | Minimum inhibitory concentration, Average (Bacillus subtilis; [29]): 1.0 µM | Minimum inhibitory concentration (Bacillus subtilis; [30]): 1 µM | Minimum inhibitory concentration (Bacillus subtilis; [31]): 1 µM
